# Data reported in patent US10399991B2, “Kv1.3 inhibitors and their medical applications” (4SC AG, priority 2015, dated 2019).
# Target: Kv1.3 (Homo sapiens (Human), UniProt P22001)
# Test: Patch-clamp assay for inhibitory activity on Kv1.3 (whole cell patch-clamp recording)
# Type: cell-based
# Details: n≥2 per concentration
# Protocol: Patch-Clamp Assay for Inhibitory Activity on Kv1.3
# For a description of a Kv1.3 patch-clamp assay, see Grissmer et al., Mol. Pharmacol. 1994, 45, 1227; whole cell patch-clamp recording was performed with n≥2 individual experiments at each compound concentration using different cells. Three or more different concentrations were determined per dose response curve.
# Kv1.3, sequence (P22001 whole entry): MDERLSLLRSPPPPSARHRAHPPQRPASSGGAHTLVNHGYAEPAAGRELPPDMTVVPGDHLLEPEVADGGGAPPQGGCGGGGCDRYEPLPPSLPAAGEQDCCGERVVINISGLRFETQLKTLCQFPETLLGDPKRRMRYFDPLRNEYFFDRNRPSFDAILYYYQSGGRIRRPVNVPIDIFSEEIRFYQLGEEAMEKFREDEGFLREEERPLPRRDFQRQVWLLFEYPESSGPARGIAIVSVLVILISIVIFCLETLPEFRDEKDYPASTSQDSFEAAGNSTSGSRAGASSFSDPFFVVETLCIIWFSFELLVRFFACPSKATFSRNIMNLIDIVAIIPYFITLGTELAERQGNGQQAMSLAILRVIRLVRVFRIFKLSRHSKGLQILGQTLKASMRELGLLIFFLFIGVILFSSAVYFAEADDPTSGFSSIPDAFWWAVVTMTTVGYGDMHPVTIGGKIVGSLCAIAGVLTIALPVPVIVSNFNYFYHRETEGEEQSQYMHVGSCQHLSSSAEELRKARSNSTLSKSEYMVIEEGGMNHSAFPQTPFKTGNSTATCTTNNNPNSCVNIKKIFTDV
row,Compound,IC50
1,"COc1ccccc1-c1cc(=O)oc2c(C)c3occ(C)c3cc12 [Example 1, 5-(2-methoxyphenyl)-3,9-dimethyl-7H-furo[3,2-g]chromen-7-one]",≤ 0.5 µM
2,"COc1cccc(-c2cc(=O)oc3c(C)c4occ(C)c4cc23)c1 [Example 2, 5-(3-methoxyphenyl)-3,9-dimethyl-7H-furo[3,2-g]chromen-7-one]",1.5 to 3 µM
3,"Cc1coc2c(C)c3oc(=O)cc(-c4ccccc4Cl)c3cc12 [Example 3, 5-(2-chlorophenyl)-3,9-dimethyl-7H-furo[3,2-g]chromen-7-one]",1.5 to 3 µM
4,"Cc1coc2c(C)c3oc(=O)cc(-c4cccc(C(F)(F)F)c4)c3cc12 [Example 4, 3,9-dimethyl-5-(3-(trifluoromethyl)phenyl)-7H-furo[3,2-g]chromen-7-one]",1.5 to 3 µM
5,"Cc1c(-c2ccccc2F)c2cc3c(C)coc3c(C)c2oc1=O [Example 5, 5-(2-fluorophenyl)-3,6,9-trimethyl-7H-furo[3,2-g]chromen-7-one]",≤ 0.5 µM
6,"COc1cccc(-c2c(C)c(=O)oc3c(C)c4occ(C)c4cc23)c1 [Example 6, 5-(3-methoxyphenyl)-3,6,9-trimethyl-7H-furo[3,2-g]chromen-7-one]",0.501 to 1.5 µM
7,"COc1ccccc1-c1c(C)c(=O)oc2c(C)c3occ(C)c3cc12 [Example 7, 5-(2-methoxyphenyl)-3,6,9-trimethyl-7H-furo[3,2-g]chromen-7-one]",≤ 0.5 µM
8,"Cc1coc2c(C)c3oc(=O)cc(-c4ccccc4F)c3cc12 [Example 8, 5-(2-fluorophenyl)-3,9-dimethyl-7H-furo[3,2-g]chromen-7-one]",≤ 0.5 µM
9,"Cc1c(N2CCOCC2)oc2c(C)c3oc(=O)cc(-c4ccccc4)c3cc12 [Example 12, 3,9-dimethyl-2-morpholino-5-phenyl-7H-furo[3,2-g]chromen-7-one]",1.5 to 3 µM
10,"Cc1c(C#N)oc2c(C)c3oc(=O)cc(-c4ccccc4)c3cc12 [Example 13, 3,9-dimethyl-7-oxo-5-phenyl-7H-furo[3,2-g]chromene-2-carbonitrile]",1.5 to 3 µM
11,"Cc1c(CN2CCOCC2)oc2c(C)c3oc(=O)cc(-c4ccccc4)c3cc12 [Example 14, 3,9-dimethyl-2-(morpholinomethyl)-5-phenyl-7H-furo[3,2-g]chromen-7-one]",1.5 to 3 µM
12,"Cc1c(CN(C)C)oc2c(C)c3oc(=O)cc(-c4ccccc4)c3cc12 [Example 15, 2-((dimethylamino)methyl)-3,9-dimethyl-5-phenyl-7H-furo[3,2-g]chromen-7-one]",1.5 to 3 µM
13,"Cc1ccccc1-c1cc(=O)oc2cc3occ(C)c3cc12 [Example 17, 3-methyl-5-(o-tolyl)-7H-furo[3,2-g]chromen-7-one]",0.501 to 1.5 µM
14,"Cc1cccc(-c2cc(=O)oc3cc4occ(C)c4cc23)c1 [Example 18, 3-methyl-5-(m-tolyl)-7H-furo[3,2-g]chromen-7-one]",0.501 to 1.5 µM
15,"COc1ccccc1-c1cc(=O)oc2cc3occ(C)c3cc12 [Example 19, 5-(2-methoxyphenyl)-3-methyl-7H-furo[3,2-g]chromen-7-one]",0.501 to 1.5 µM
16,"COc1cccc(-c2cc(=O)oc3cc4occ(C)c4cc23)c1 [Example 20, 5-(3-methoxyphenyl)-3-methyl-7H-furo[3,2-g]chromen-7-one]",0.501 to 1.5 µM
17,"Cc1coc2cc3oc(=O)cc(-c4ccccc4Cl)c3cc12 [Example 21, 5-(2-chlorophenyl)-3-methyl-7H-furo[3,2-g]chromen-7-one]",0.501 to 1.5 µM
18,"Cc1coc2cc3oc(=O)cc(-c4cccc(Cl)c4)c3cc12 [Example 22, 5-(3-chlorophenyl)-3-methyl-7H-furo[3,2-g]chromen-7-one]",0.501 to 1.5 µM
19,"COc1c2occ(C)c2cc2c(-c3ccccc3)cc(=O)oc12 [Example 23, 9-methoxy-3-methyl-5-phenyl-7H-furo[3,2-g]chromen-7-one]",1.5 to 3 µM
20,"Cc1coc2nc3oc(=O)cc(-c4ccccc4)c3cc12 [Example 24, 3-methyl-5-phenyl-7H-furo[2,3-b]pyrano[3,2-e]pyridin-7-one]",0.501 to 1.5 µM
21,"Cc1ccccc1-c1c(Br)c(=O)[nH]c2c(C)c3occ(C)c3cc12 [Example 28, 6-bromo-3,9-dimethyl-5-(o-tolyl)furo[3,2-g]quinolin-7(8H)-one]",0.501 to 1.5 µM
22,"Cc1ccccc1-c1cc(=O)[nH]c2c(C)c3occ(C)c3cc12 [Example 29, 3,9-dimethyl-5-(o-tolyl)furo[3,2-g]quinolin-7(8H)-one]",1.5 to 3 µM
23,"Cc1coc2c(C)c3c(cc12)c(-c1ccccc1)cc(=O)n3C [Example 32, 3,8,9-trimethyl-5-phenylfuro[3,2-g]quinolin-7(8H)-one]",1.5 to 3 µM

row,Compound,IC50
1,"Cc1coc2c(C)c3c(cc12)c(-c1ccccc1)c(Br)c(=O)n3C [Example 33, 6-bromo-3,8,9-trimethyl-5-phenylfuro[3,2-g]quinolin-7(8H)-one]",≤ 0.5 µM
2,"Cc1c(-c2ccccc2)c2cc3c(C)noc3c(C)c2oc1=O [Example 35, 3,6,9-trimethyl-5-phenyl-7H-chromeno[6,7-d]isoxazol-7-one]",0.501 to 1.5 µM
3,"Cc1c(-c2ccccc2)c2cc3c(C)noc3c(C)c2[nH]c1=O [Example 36, 3,6,9-trimethyl-5-phenylisoxazolo[4,5-g]quinolin-7(8H)-one]",≤ 0.5 µM
4,"Cc1nc2cc3c(-c4ccccc4)cc(=O)oc3c(C)c2o1 [Example 38, 2,4-dimethyl-8-phenyl-6H-chromeno[6,7-d]oxazol-6-one]",0.501 to 1.5 µM
5,"CNCc1nc2cc3c(-c4ccccc4)cc(=O)oc3c(C)c2o1 [Example 39, 4-methyl-2-((methylamino)methyl)-8-phenyl-6H-chromeno[6,7-d]oxazol-6-one]",1.5 to 3 µM
6,"Cc1c(-c2ccccc2)c2cc3c(C4CC4)coc3c(C)c2oc1=O [Example 42, 3-cyclopropyl-6,9-dimethyl-5-phenyl-7H-furo[3,2-g]chromen-7-one]",0.501 to 1.5 µM
7,"Cc1coc2c(C)c3oc(=O)cc(-c4cccnc4)c3cc12 [Example 44, 3,9-dimethyl-5-(pyridin-3-yl)-7H-furo[3,2-g]chromen-7-one]",1.5 to 3 µM
8,"Cc1c(-c2ccccc2)c2cc3c(C)c(CN(C)C)oc3c(C)c2oc1=O [Example 46, 2-((dimethylamino)methyl)-3,6,9-trimethyl-5-phenyl-7H-furo[3,2-g]chromen-7-one]",1.5 to 3 µM
9,"Cc1c2ocnc2cc2c(-c3ccccc3)cc(=O)oc12 [Example 47, 4-methyl-8-phenyl-6H-chromeno[6,7-d]oxazol-6-one]",1.5 to 3 µM
10,"Cc1nc2cc3c(-c4ccccc4)c(C)c(=O)oc3c(C)c2o1 [Example 48, 2,4,7-trimethyl-8-phenyl-6H-chromeno [6,7-d]oxazol-6-one]",0.501 to 1.5 µM
11,"Cc1noc2c(C)c3oc(=O)cc(-c4ccccc4)c3cc12 [Example 50, 3,9-dimethyl-5-phenyl-7H-chromeno[6,7-d]isoxazol-7-one]",1.5 to 3 µM
12,"Cc1noc2c(C)c3[nH]c(=O)cc(-c4ccccc4)c3cc12 [Example 51, 3,9-dimethyl-5-phenylisoxazolo[4,5-g]quinolin-7(8H)-one]",0.501 to 1.5 µM
13,"Cc1c(-c2ccccc2)c2cc3c(C)noc3c(C)c2n(C)c1=O [Example 52, 3,6,8,9-tetramethyl-5-phenylisoxazolo[4,5-g]quinolin-7(8H)-one]",0.501 to 1.5 µM
14,"Cc1c(-c2cccnc2)c2cc3c(C)noc3c(C)c2n(C)c1=O [Example 56, 3,6,8,9-tetramethyl-5-(pyridin-3-yl)isoxazolo[4,5-g]quinolin-7(8H)-one]",1.5 to 3 µM
15,"Cc1coc2c(C)c3oc(=O)cc(-c4ccccn4)c3cc12 [Example 57, 3,9-dimethyl-5-(pyridin-2-yl)-7H-furo[3,2-g]chromen-7-one]",1.5 to 3 µM
16,"Cc1ccccc1-c1cc(=O)oc2c(C)c3occ(C)c3cc12 [Example 58, 3,9-dimethyl-5-(o-tolyl)-7H-furo[3,2-g]chromen-7-one]",0.501 to 1.5 µM
17,"Cc1ccccc1-c1c(C)c(=O)n(C)c2c(C)c3occ(C)c3cc12 [Example 59, 3,6,8,9-tetramethyl-5-(o-tolyl)furo[3,2-g]quinolin-7(8H)-one]",0.501 to 1.5 µM
18,"Cc1c(-c2ccccc2Cl)c2cc3c(C)coc3c(C)c2n(C)c1=O [Example 60, 5-(2-chlorophenyl)-3,6,8,9-tetramethylfuro[3,2-g]quinolin-7(8H)-one]",≤ 0.5 µM
19,"Cc1c(-c2ccccc2F)c2cc3c(C)coc3c(C)c2n(C)c1=O [Example 61, 5-(2-fluorophenyl)-3,6,8,9-tetramethylfuro[3,2-g]quinolin-7(8H)-one]",≤ 0.5 µM
20,"COc1ncccc1-c1c(C)c(=O)oc2c(C)c3occ(C)c3cc12 [Example 62, 5-(2-methoxypyridin-3-yl)-3,6,9-trimethyl-7H-furo[3,2-g]chromen-7-one]",0.501 to 1.5 µM
21,"COc1ccncc1-c1c(C)c(=O)oc2c(C)c3occ(C)c3cc12 [Example 63, 5-(4-methoxypyridin-3-yl)-3,6,9-trimethyl-7H-furo[3,2-g]chromen-7-one]",1.5 to 3 µM
22,"COc1ncccc1-c1c(C)c(=O)n(C)c2c(C)c3occ(C)c3cc12 [Example 64, 5-(2-methoxypyridin-3-yl)-3,6,8,9-tetramethylfuro[3,2-g]quinolin-7(8H)-one]",1.5 to 3 µM

# Test system: Peripheral blood mononuclear cells (PBMC)
# Test: T cell proliferation assay (anti-CD3 activated PBMC, BrdU based cell proliferation ELISA)
# Details: human PBMC, TRAM-34 (5 μM), 50 ng/ml anti-CD3, 48 hours; read-out: IC50(BrdU incorporation)
# Text: T cell proliferation assay (in analogy to Pegoraro et al., Bioorg. Med. Chem. Lett. 2009, 19, 2299)
# Peripheral blood mononuclear cells (PBMC) from healthy human donors were isolated by centrifugation over a density gradient in an aqueous solution, comprising a high molecular weight polysaccharide and sodium diatrizionate, and having a density of 1.077±0.001 (Ficoll-Hypaque by Sigma-Aldrich, Germany; according to manufacturer's instructions). Purified PBMC were washed twice with PBS and resuspended in RPMI1640 culture medium (Gibco—Life Technologies) supplemented with 10% heat inactivated fetal calf serum, 1.5 mM L-glutamine, 100 U penicillin/ml, and 100 […] (all from PAA—GE Healthcare). For stimulation, PBMC were seeded at 1×10^5 cells/well, incubated with TRAM-34 (5 μM) and the test compounds for 4 h and activated with 50 ng/ml anti-CD3 (from eBioscience). After 48 hours proliferation was measured using a BrdU based cell proliferation ELISA according to the manual.
row,Compound,IC50
1,"COc1ccccc1-c1cc(=O)oc2c(C)c3occ(C)c3cc12 [Example 1, 5-(2-methoxyphenyl)-3,9-dimethyl-7H-furo[3,2-g]chromen-7-one]",3.1 to 15 µM
2,"Cc1c(-c2ccccc2F)c2cc3c(C)coc3c(C)c2oc1=O [Example 5, 5-(2-fluorophenyl)-3,6,9-trimethyl-7H-furo[3,2-g]chromen-7-one]",1.3 to 3 µM
3,"COc1ccccc1-c1c(C)c(=O)oc2c(C)c3occ(C)c3cc12 [Example 7, 5-(2-methoxyphenyl)-3,6,9-trimethyl-7H-furo[3,2-g]chromen-7-one]",1.3 to 3 µM
